Assay [1] deals with IL-12 induced STAT4 phophorylation mediated by Tyk2/JAK2 (heterodimeric complex). As to the kind of experiment: IL-12 Induced pSTAT4 in Human PBMC. The conditions noted are these: 1.7 ng/mL IL-12. It is filed as cell-based. An excerpt:
The IL-12 Induced pSTAT4 assay evaluates the inhibition of IL-12 induced STAT4 phophorylation mediated by Tyk2/JAK2 (heterodimeric complex).

For assay [2], the system named is GM-CSF induced STAT5 phosphorylation mediated by the JAK2/JAK2 homdimeric complex. Nature of the assay: GM-CSF Induced pSTAT5 in Human PBMC. The conditions noted are these: GM-CSF 5 ng/mL for 20 minutes, pSTAT5.
Excerpt: Human PBMC are isolated from buffy coat and are stored frozen for assays as needed.
Setting [3] is: Homo sapiens, PBMC, 20 min, read-out: PBMC_GMCSF_pSTAT5 IC50, human PBMC.

The term pIC50 denotes −log10 of the IC50, conventionally taken in molar units.

pIC50: −log10 of the molar value. Read-outs that look alike come from different tables or passages of the source.

As for `CNc1cc(Nc2cccn(C3CCCOC3)c2=O)nc2c(C(=O)NC3CCC3)cnn12` (racemic) [I-324], the pIC50 in assay [1] is more than 7.00; in assay [2] (setting [3]), less than 4.30.
Consider `CNc1cc(Nc2cccc3ocnc23)nc2c(C(=O)N[C@@H]3CC[C@H]3O)cnn12` (racemic) [I-756, 5-(benzo[d]oxazol-4-ylamino)-N-(2-hydroxycyclobutyl)-7-(methylamino) pyrazolo[1,5-a]pyrimidine-3-carboxamide], for which the pIC50 in assay [1] was 6.30 to 7.00; in assay [2] (setting [3]), less than 4.30.
Regarding `CNc1cc(Nc2cccn(-c3ccn(C4CC4)n3)c2=O)nc2c(C(=O)N[C@@H]3C[C@@H]3F)cnn12` (stereo in doubt) [I-106, 5-((1-(1-cyclopropyl-1H-pyrazol-3-yl)-2-oxo-1,2-dihydropyridin-3-yl)amino)-N-((1R,2S)-2-fluorocyclopropyl)-7-(methylamino)pyrazolo[1,5-a]pyrimidine-3-carboxamide], the pIC50 in assay [1] was more than 7.00; in assay [2] (setting [3]), less than 4.90.
On to `CNc1cc(Nc2cccn(-c3ccnc(C)n3)c2=O)nc2c(C(=O)N[C@@H]3C[C@@H]3F)cnn12` (stereo in doubt) [I-124, N-((1R,2S)-2-fluorocyclopropyl)-7-(methylamino)-5-((1-(2-methylpyrimidin-4-yl)-2-oxo-1,2-dihydropyridin-3-yl)amino)pyrazolo[1,5-a]pyrimidine-3-carboxamide], for which the pIC50 in assay [1] was more than 7.00; in assay [2] (setting [3]), less than 4.90.
As for `CNc1cc(-c2cn(C(C)C)c3ncccc23)nc2c(C(=O)N[C@@H]3C[C@@H]3F)cnn12` (stereo in doubt) [I-225, N-((1R,2S)-2-fluorocyclopropyl)-5-(1-isopropyl-1H-pyrrolo[2,3-b]pyridin-3-yl)-7-(methylamino)pyrazolo[1,5-a]pyrimidine-3-carboxamide], the negative-log IC50 (pIC50) in assay [1] was more than 7.00; in assay [2] (setting [3]), less than 4.30.
For `CNc1cc(Nc2cccnc2OC)nc2c(C(=O)N[C@@H]3CC[C@H]3O)cnn12` (stereo in doubt) [I-363, N-((1R,2R)-2-hydroxycyclobutyl)-5-((2-methoxypyridin-3-yl)amino)-7-(methylamino)pyrazolo[1,5-a]pyrimidine-3-carboxamide], the pIC50 in assay [1] is more than 7.00; in assay [2] (read-out: PBMC_GMCSF_pSTAT5 IC50, human PBMC), less than 4.30.
Take `CNc1cc(Nc2cccnc2OC2CC2)nc2c(C(=O)NC3CCC3O)cnn12` (stereo in doubt) [I-366, 5-((2-cyclopropoxypyridin-3-yl)amino)-N-((1R,2R)-2-hydroxycyclobutyl)-7-(methylamino)pyrazolo[1,5-a]pyrimidine-3-carboxamide]: the pIC50 was more than 7.00 in assay [1] and less than 4.30 in assay [2] (setting [3]).
For `[2H]C([2H])([2H])Nc1cc(Nc2cccnc2OC)nc2c(C(=O)N[C@@H]3C[C@@H]3F)cnn12` (stereo in doubt) [I-374, N-((1R,2S)-2-fluorocyclopropyl)-5-((2-methoxypyridin-3-yl)amino)-7-((methyl-d3)amino)pyrazolo[1,5-a]pyrimidine-3-carboxamide], the pIC50 in assay [1] was more than 7.00; in assay [2] (setting [3]) it was less than 4.30.
The matching figures for `[2H]C([2H])([2H])Nc1cc(Nc2cccnc2OC2CC2)nc2c(C(=O)N[C@@H]3C[C@@H]3F)cnn12` (stereo in doubt) [I-375, 5-((2-cyclopropoxypyridin-3-yl)amino)-N-((1R,2S)-2-fluorocyclopropyl)-7-((methyl-d3)amino)pyrazolo[1,5-a]pyrimidine-3-carboxamide]: more than 7.00 and less than 4.30.
Turning to `COc1ncccc1Nc1cc(NCCCN2CCOCC2)n2ncc(C(=O)N[C@@H]3C[C@@H]3F)c2n1` (stereo in doubt) [I-377, N-((1R,2S)-2-fluorocyclopropyl)-5-((2-methoxypyridin-3-yl)amino)-7-((3-morpholinopropyl)amino)pyrazolo[1,5-a]pyrimidine-3-carboxamide], the values for the pIC50 in assay [1] and in assay [2] (setting [3]) were 6.30 to 7.00 and less than 4.30, respectively.
Take `CNc1cc(Nc2cccn(-c3nn(C)cc3C)c2=O)nc2c(C(=O)NC3CC3)cnn12` [I-404]: in assay [1], the pIC50 is less than 6.00.
The compound `CNc1cc(Nc2cccn(-c3nn(C)cc3C)c2=O)nc2c(C(=O)N[C@H]3C[C@H]3F)cnn12` [I-405] gave a pIC50 in assay [1] of 6.30 to 7.00.
For `[2H]C([2H])([2H])Oc1ncccc1Nc1cc(NC)n2ncc(C(=O)N[C@H]3CC[C@@H]3O)c2n1` [I-411], the pIC50 in assay [1] is more than 7.00.
In the case of `CNc1cc(Nc2cccn([C@H]3CCC[C@@H](OC)C3)c2=O)nc2c(C(=O)NCC(C)(C)CO)cnn12` [I-861], in assay [1], the pIC50 is more than 7.00.
On the same count and under the same terms, with `CNc1cc(Nc2cccn(-c3ncccc3F)c2=O)nc2c(C(=O)O)cnn12` [I-893, 5-((3′-fluoro-2-oxo-2H-[1,2′-bipyridin]-3-yl)amino)-7-(methylamino) pyrazolo[1,5-a]pyrimidine-3-carboxylic acid] the figure was less than 6.00.
On the same count and under the same terms, with `CNc1cc(Nc2cccn([C@H]3CCCN(CCF)C3)c2=O)nc2c(C(=O)N[C@@H]3C[C@@H]3F)cnn12` [I-900] the figure was more than 7.00.
As for `CNc1cc(Nc2cccn3ccnc23)nc2c(C(=O)N[C@@H]3CC[C@H]3OC)cnn12` [I-1133], in assay [1], the pIC50 is more than 7.00.
Still for that read-out and setting: with `CNc1cc(-c2cn([C@H]3CCCOC3)c3ncccc23)nc2c(C(=O)N[C@H]3CC[C@@H]3OC)cnn12` [I-1283] the figure was more than 7.00; with `CNc1cc(Nc2cccn(-c3ccccn3)c2=O)nc2c(C(=O)N[C@@H]3C[C@H]3OC)cnn12` [I-1286], more than 7.00.
On the same count and under the same terms, with `CNc1cc(Nc2cccn([C@H]3CCC[C@@H](O)C3)c2=O)nc2c(C(=O)N[C@H]3CC[C@@H]3OC)cnn12` [I-1296] the figure was more than 7.00; with `CNc1cc(-c2cn(CCCO)c3ncccc23)nc2c(C(=O)N[C@@H]3CC[C@H]3OC)cnn12` [I-1299], more than 7.00; with `CNc1cc(Nc2cccn([C@@H]3CC[C@H]3O)c2=O)nc2c(C(=O)N[C@@H]3CC[C@H]3OC)cnn12` [I-1309], more than 7.00.
Same read-out and setting: with `CNc1cc(-c2cn(C3CCOCC3)c3ncc(F)cc23)nc2c(C(=O)N[C@H]3CC[C@@H]3O)cnn12` [I-1314] the figure was more than 7.00; with `CNc1cc(Nc2cccn(-c3nn(C)cc3F)c2=O)nc2c(C(=O)N[C@@H]3C[C@@H]3F)cnn12` [I-1321], more than 7.00.
In assay [1], `CNC(=O)c1occc1Nc1cc(NC)n2ncc(C(=O)N[C@H]3CC[C@@H]3OC)c2n1` [I-1323] had a pIC50 of more than 7.00.
The compound `CNc1cc(-c2cn(C3CC3)c3ncccc23)nc2c(C(=O)N[C@H]3CC[C@@H]3OC)cnn12` [I-1325] showed a pIC50 in assay [1] of more than 7.00.
As to `CNc1cc(-c2cn(C3CCOCC3)c3ncccc23)nc2c(C(=O)N[C@@H]3CC[C@H]3OC)cnn12` [I-1328], the pIC50 in assay [1] was more than 7.00.
Still for that read-out and setting: with `CNc1cc(Nc2cccn([C@@H]3CCC[C@@H](OC)C3)c2=O)nc2c(C(=O)N[C@H]3CC[C@@H]3OC)cnn12` [I-1331] the figure was more than 7.00; with `CNc1cc(Nc2cccn([C@@H]3CCN(CCF)C3)c2=O)nc2c(C(=O)N[C@@H]3CC[C@H]3OC)cnn12` [I-1333], more than 7.00.
`CNc1cc(Nc2cccn3cnnc23)nc2c(C(=O)N[C@H]3CC[C@@H]3OC)cnn12` [I-1343] showed a negative-log IC50 (pIC50) in assay [1] of more than 7.00.
Still for that read-out and setting: with `CNc1cc(Nc2cccn([C@@H]3CC[C@@H]3O)c2=O)nc2c(C(=O)N[C@@H]3CC[C@H]3OC)cnn12` [I-1350] the figure was more than 7.00; with `CNc1cc(Nc2cccn([C@H]3[C@@H]4COC[C@@H]43)c2=O)nc2c(C(=O)N[C@@H]3CC[C@H]3OC)cnn12` [I-1354], more than 7.00; with `CNc1cc(-c2cn([C@@H]3CCCOC3)c3ncccc23)nc2c(C(=O)N[C@H]3CC[C@@H]3OC)cnn12` [I-1364], more than 7.00.
Regarding `CNc1cc(-c2cn([C@H]3CCCOC3)c3ncccc23)nc2c(C(=O)N[C@H]3CC[C@@H]3OC)cnn12` [I-1365], the pIC50 in assay [1] is more than 7.00.
As for `CNc1cc(-c2cn([C@@H]3CCN(CCF)C3)c3ncccc23)nc2c(C(=O)N[C@@H]3C[C@@H]3F)cnn12` [I-1366], in assay [1], the negative logarithm of the IC50 (pIC50) is more than 7.00.
As for `CNc1cc(Nc2cccn(-c3cnn(C)c3F)c2=O)nc2c(C(=O)N[C@H]3CC[C@@H]3OC)cnn12` [I-1369], the pIC50 in assay [1] was more than 7.00.
Same read-out and setting: in the case of `CNc1cc(Nc2cccn([C@H]3CCC[C@H]3O)c2=O)nc2c(C(=O)N[C@H]3CC[C@@H]3OC)cnn12` [I-1373] it was more than 7.00.
Compound `CNc1cc(Nc2cccn([C@H]3CCC[C@H](OC)C3)c2=O)nc2c(C(=O)N[C@@H]3CC[C@H]3OC)cnn12` [I-1374] showed a pIC50 in assay [1] of more than 7.00.
In turn, `CNc1cc(Nc2cccn([C@H]3CCCC[C@H]3OC)c2=O)nc2c(C(=O)N[C@H]3CC[C@@H]3OC)cnn12` [I-1377] had a pIC50 in assay [1] of more than 7.00.
Regarding `CNc1cc(Nc2cccn([C@H]3CCN(CCF)C3)c2=O)nc2c(C(=O)N[C@H]3CC[C@@H]3OC)cnn12` [I-1381], the pIC50 in assay [1] was more than 7.00.
Consider `CNc1cc(Nc2cccn([C@@H]3CCCN(CCF)C3)c2=O)nc2c(C(=O)N[C@H]3CC[C@@H]3OC)cnn12` [I-1382], for which the pIC50 in assay [1] was more than 7.00.
The compound `CNc1cc(Nc2cccn([C@H]3CC[C@@H]3O)c2=O)nc2c(C(=O)N[C@H]3CC[C@@H]3OC)cnn12` [I-1385] gave a pIC50 in assay [1] of more than 7.00.
In the case of `CNc1cc(-c2cn(CCCO)c3ncccc23)nc2c(C(=O)N[C@H]3CC[C@@H]3OC)cnn12` [I-1388], in assay [1], the negative logarithm of the IC50 (pIC50) is more than 7.00.
Compound `CNc1cc(Nc2cccn(C3CC(F)(F)C3)c2=O)nc2c(C(=O)N[C@H]3CC[C@@H]3OC)cnn12` [I-1389] gave a pIC50 in assay [1] of more than 7.00.
For `CNc1cc(Nc2cccn([C@H]3CCC[C@H](O)C3)c2=O)nc2c(C(=O)N[C@@H]3CC[C@H]3OC)cnn12` [I-1395], in assay [1], the pIC50 was more than 7.00.
`CNc1cc(Nc2cccn([C@@H]3CC[C@@H]3O)c2=O)nc2c(C(=O)N[C@H]3CC[C@@H]3OC)cnn12` [I-1411]: the pIC50 in assay [1] was more than 7.00.
